Experimental data: the supplement of paper PMC11061612

Tests used:
Experiment in all cases: combination Emax (second highest fraction inhibited in the dose matrix, 72 h); higher = more inhibition; extreme values may be limits of the assay
[1] = test system: JHU-022 (Oral Cavity Carcinoma)
Outline: (§1)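 Cell lines grown in DMEM/F12 or RPMI with 10% FBS were plated in 1536-well plates and held 24 hours at 37°C, 5% CO2 before 72 hours of exposure to two-drug dose matrices, with DMSO typically at 0.2%. CellTiter-Glo 2.0 luminescence gave viability, which was converted to inhibition. Vehicle wells were set to 0 and blank wells to 1. Combination Emax is the second-highest inhibition in the matrix, and Bliss excess is the observed combination effect minus the expected EA + EB − EA·EB, where EA and EB are the single-agent effects.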

[2] = test system: 22RV1 (Prostate Carcinoma)
Outline: as §1

EW-7 (Ewing's Sarcoma) = test system: EW-7 (Ewing's Sarcoma)
Outline: as §1

[3] = test system: JHH-2 (Hepatocellular Carcinoma)
Outline: as §1

HCC70 (Breast Carcinoma) = test system: HCC70 (Breast Carcinoma)
Outline: as §1

[4] = test system: MDA-MB-436 (Breast Carcinoma)
Outline: as §1

NB13 (Neuroblastoma) = test system: NB13 (Neuroblastoma)
Outline: as §1

[5] = test system: LS-411N (Colorectal Carcinoma)
Outline: as §1

| Compound | combination Emax [1] | combination Emax [2] | combination Emax (EW-7 (Ewing's Sarcoma)) | combination Emax [3] | combination Emax (HCC70 (Breast Carcinoma)) | combination Emax [4] | combination Emax (NB13 (Neuroblastoma)) | combination Emax [5] |
| --- | --- | --- | --- | --- | --- | --- | --- | --- |
| C[C@@H](Nc1cc(F)cc(F)c1)c1cc(C(=O)N(C)C)cc2c(=O)cc(N3CCOCC3)oc12 [AZD8186] + CC(=O)c1c(C)c2cnc(Nc3ccc(N4CCNCC4)cn3)nc2n(C2CCCC2)c1=O [Palbociclib] (first compound max 10 µM, 7x7, partner max 10 µM) | 0.512 | 0.563 | 0.509 | 0.693 | 0.575 | 0.472 | – | – |
| C[C@@H]1COCCN1c1cc(C2([S@](C)(=N)=O)CC2)nc(-c2ccnc3[nH]ccc23)n1 [AZD6738] + C1CC(C1)(C(=O)[O-])C(=O)[O-].N.N.[Pt+2] [Carboplatin] (first compound max 10 µM, 7x7, partner max 10 µM) | 0.513 | 0.553 | 0.936 | 0.507 | 0.763 | 0.266 | 0.81 | – |
| CC1(C)CCC(CN2CCN(c3ccc(C(=O)NS(=O)(=O)c4ccc(NCC5CCOCC5)c([N+](=O)[O-])c4)c(Oc4cnc5[nH]ccc5c4)c3)CC2)=C(c2ccc(Cl)cc2)C1 [Venetoclax] + CS(=O)(=O)CCNCc1ccc(-c2ccc3ncnc(Nc4ccc(OCc5cccc(F)c5)c(Cl)c4)c3c2)o1 [Lapatinib] (first compound max 1 µM, 7x7, partner max 10 µM) | 0.631 | 0.266 | 0.656 | 0.395 | 0.343 | 0.227 | 0.43 | – |
| C[C@@H](Oc1cc(-c2cnn(C3CCNCC3)c2)cnc1N)c1c(Cl)ccc(F)c1Cl [Crizotinib] + CC1=C(C(=CC=C1)Cl)NC(=O)C2=CN=C(S2)NC3=CC(=NC(=N3)C)N4CCN(CC4)CCO [Dasatinib] (first compound max 10 µM, 7x7, partner max 2 µM) | 0.648 | 0.468 | 0.945 | 0.883 | 0.117 | 0.3 | 0.801 | – |
| C[C@@H](Oc1cc(-c2cnn(C3CCNCC3)c2)cnc1N)c1c(Cl)ccc(F)c1Cl [Crizotinib] + Cn1cnc2c(F)c(Nc3ccc(Br)cc3Cl)c(C(=O)NOCCO)cc21 [Selumetinib] (first compound max 10 µM, 7x7, partner max 10 µM) | 0.496 | 0.59 | 0.929 | 0.598 | 0.448 | 0.292 | 0.804 | – |
| CS(=O)(=O)CCNCc1ccc(-c2ccc3ncnc(Nc4ccc(OCc5cccc(F)c5)c(Cl)c4)c3c2)o1 [Lapatinib] + Cn1cnc2c(F)c(Nc3ccc(Br)cc3Cl)c(C(=O)NOCCO)cc21 [Selumetinib] (first compound max 10 µM, 7x7, partner max 10 µM) | 0.702 | 0.464 | 0.731 | 0.565 | 0.891 | 0.352 | 0.521 | – |
| C[C@@H]1COCCN1c1cc(C2([S@](C)(=N)=O)CC2)nc(-c2ccnc3[nH]ccc23)n1 [AZD6738] + Nc1ccn([C@@H]2O[C@H](CO)[C@@H](O)C2(F)F)c(=O)n1 [Gemcitabine] (first compound max 10 µM, 7x7, partner max 0.3 µM) | 0.695 | 0.754 | 1 | 0.716 | 0.826 | 0.621 | – | – |
| C[C@@H](Nc1cc(F)cc(F)c1)c1cc(C(=O)N(C)C)cc2c(=O)cc(N3CCOCC3)oc12 [AZD8186] + C1CN(CCC1(C(=O)N[C@@H](CCO)C2=CC=C(C=C2)Cl)N)C3=NC=NC4=C3C=CN4 [AZD5363] (first compound max 10 µM, 7x7, partner max 10 µM) | 0.494 | 0.546 | 0.678 | 0.716 | 0.732 | 0.449 | – | – |
| O=C(c1cc(Cc2n[nH]c(=O)c3ccccc23)ccc1F)N1CCN(C(=O)C2CC2)CC1 [Olaparib] + CN(CC[C@H](CSC1=CC=CC=C1)NC2=C(C=C(C=C2)S(=O)(=O)NC(=O)C3=CC=C(C=C3)N4CCC(CC4)[C@H](C5=CC=CC=C5C6=CC=C(C=C6)Cl)O)S(=O)(=O)C(F)(F)F)CCO [AZD4320] (first compound max 10 µM, 7x7, partner max 1 µM) | 0.163 | 0.183 | 0.944 | 0.171 | 0.253 | 0.308 | – | – |
| CN(CCO)CC[C@H](CSc1ccccc1)Nc1ccc(S(=O)(=O)NC(=O)c2ccc(N3CCC([C@@H](O)c4ccccc4-c4ccc(Cl)cc4)CC3)cc2)cc1S(=O)(=O)C(F)(F)F [AZD4320] + CS(=O)(=O)CCNCc1ccc(-c2ccc3ncnc(Nc4ccc(OCc5cccc(F)c5)c(Cl)c4)c3c2)o1 [Lapatinib] (first compound max 1 µM, 7x7, partner max 10 µM) | 0.784 | 0.335 | 0.979 | 0.778 | 0.93 | 0.256 | 0.989 | – |
| O=C(c1cc(Cc2n[nH]c(=O)c3ccccc23)ccc1F)N1CCN(C(=O)C2CC2)CC1 [Olaparib] + COc1nnc2ccc(N3CCC(c4ccc(OCCN5CCN(C)C(=O)[C@H]5C)cc4)CC3)nn12 [AZD5153] (first compound max 10 µM, 7x7, partner max 1 µM) | 0.35 | 0.546 | 0.746 | 0.314 | 0.281 | 0.316 | – | – |
| Cc1nc(-c2cn3c(n2)-c2ccc(-c4cnn(C(C)(C)C(N)=O)c4)cc2OCC3)n(C(C)C)n1 [Taselisib] + O=C(Nc1ccc2[nH]nc(-c3ccncc3)c2c1)[C@@H]1CCN(CC(=O)N2CCN(c3ccc(-c4ncccn4)cc3)CC2)C1 [SCH772984] (first compound max 10 µM, 7x7, partner max 5 µM) | 0.769 | 0.702 | 0.999 | 0.971 | 0.943 | 0.469 | 0.424 | – |
| C=CCn1c(=O)c2cnc(Nc3ccc(N4CCN(C)CC4)cc3)nc2n1-c1cccc(C(C)(C)O)n1 [AZD1775] + Nc1ccn([C@@H]2O[C@H](CO)[C@@H](O)C2(F)F)c(=O)n1 [Gemcitabine] (first compound max 1 µM, partner max 0.3 µM) | 0.617 | 0.744 | 1 | 0.735 | 0.513 | 0.608 | – | – |
| Cc1c2c(nn1C)CSCc1cc(n(C)n1)CSc1cc(c3ccccc3c1)OCCCc1c(C(=O)O)n(C)c3c-2c(Cl)ccc13 [AZD5991] + CS(=O)(=O)CCNCc1ccc(-c2ccc3ncnc(Nc4ccc(OCc5cccc(F)c5)c(Cl)c4)c3c2)o1 [Lapatinib] (first compound max 1 µM, 7x7, partner max 10 µM) | 0.705 | 0.55 | 0.666 | 0.446 | 0.995 | 0.274 | 0.527 | – |
| Cc1c2c(nn1C)CSCc1cc(n(C)n1)CSc1cc(c3ccccc3c1)OCCCc1c(C(=O)O)n(C)c3c-2c(Cl)ccc13 [AZD5991] + Nc1ccn([C@@H]2O[C@H](CO)[C@@H](O)C2(F)F)c(=O)n1 [Gemcitabine] (first compound max 1 µM, 7x7, partner max 0.3 µM) | 0.659 | 0.886 | 1 | 0.483 | 0.937 | 0.56 | – | – |
| CS(=O)(=O)CCNCc1ccc(-c2ccc3ncnc(Nc4ccc(OCc5cccc(F)c5)c(Cl)c4)c3c2)o1 [Lapatinib] + NC1(c2ccc(-c3nc4ccn5c(=O)[nH]nc5c4cc3-c3ccccc3)cc2)CCC1 [MK-2206] (first compound max 10 µM, 7x7, partner max 10 µM) | 0.663 | 0.835 | 0.965 | 0.9 | 0.923 | 0.461 | 0.952 | 0.295 |
| C=CCn1c(=O)c2cnc(Nc3ccc(N4CCN(C)CC4)cc3)nc2n1-c1cccc(C(C)(C)O)n1 [AZD1775] + CCc1c2c(nc3ccc(O)cc13)-c1cc3c(c(=O)n1C2)COC(=O)[C@]3(O)CC [SN-38] (first compound max 1 µM, partner max 0.3 µM) | 0.783 | 0.732 | 0.966 | 0.76 | 0.537 | 0.591 | 0.853 | – |
| Cc1c2c(nn1C)CSCc1cc(n(C)n1)CSc1cc(c3ccccc3c1)OCCCc1c(C(=O)O)n(C)c3c-2c(Cl)ccc13 [AZD5991] + CC(=O)O[C@H]1C(=O)[C@@]2(C)[C@H]([C@H](OC(=O)c3ccccc3)[C@]3(O)C[C@H](OC(=O)[C@H](O)[C@@H](NC(=O)c4ccccc4)c4ccccc4)C(C)=C1C3(C)C)[C@]1(OC(C)=O)CO[C@@H]1C[C@@H]2O [Paclitaxel] (first compound max 1 µM, 7x7, partner max 3 µM) | 0.371 | 0.912 | 0.984 | 0.783 | 0.973 | 0.391 | – | – |
| O=C(c1cc(Cc2n[nH]c(=O)c3ccccc23)ccc1F)N1CCN(C(=O)C2CC2)CC1 [Olaparib] + CC1(C)CCC(CN2CCN(c3ccc(C(=O)NS(=O)(=O)c4ccc(NCC5CCOCC5)c([N+](=O)[O-])c4)c(Oc4cnc5[nH]ccc5c4)c3)CC2)=C(c2ccc(Cl)cc2)C1 [Venetoclax] (first compound max 10 µM, 7x7, partner max 1 µM) | 0.174 | 0.251 | 0.786 | 0.114 | 0.141 | 0.277 | – | – |
| O=C(c1cc(Cc2n[nH]c(=O)c3ccccc23)ccc1F)N1CCN(C(=O)C2CC2)CC1 [Olaparib] + Cc1c2c(nn1C)CSCc1cc(n(C)n1)CSc1cc(c3ccccc3c1)OCCCc1c(C(=O)O)n(C)c3c-2c(Cl)ccc13 [AZD5991] (first compound max 10 µM, 7x7, partner max 1 µM) | 0.0997 | 0.519 | 0.787 | 0.163 | 0.879 | 0.234 | – | – |
